Laboratory results reported in US20070054916A1, “Aryl nitrogen-containing bicyclic compounds and methods of use” (Amgen Inc., priority 2004, published 2007).

System: production of TNF by monocytes activated with bacterial lipopolysaccharide (LPS)
Experiment: Lipopolysaccharide-activated monocyte TNF production assay
Type: cell-based
Conditions: Homo sapiens, read-out: IC50 values in the monocyte assay (LPS induced TNF release)
Procedure, shortened: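 Adherent human PBMC-derived monocytes (~70%) in DMEM/2% FCS were pre-incubated 60 min with nine two-fold compound dilutions, then stimulated with E. coli K532 LPS (added as 30 ng/ml solution) for 4 h at 37 °C. Supernatant TNF-α was measured by sandwich ELISA. IC50 was taken from a polynomial fit of TNF versus compound concentration.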

| SMILES | IC50 |
| --- | --- |
| CNc1ncc2cc(-c3cc(C(=O)Nc4cc(C(=O)NCCN5CCOCC5)cc(C(F)(F)F)c4)ccc3C)cnc2n1 [Example 189, 4-methyl-3-(2-(methylamino)pyrido [2,3-d]pyrimidin-6-yl)-N-(3-(((2-(4-morpholinyl)ethyl)amino)carbonyl)-5-(trifluoromethyl)phenyl)benzamide] | ≤ 25 µM |
| Cc1ccc(C(=O)Nc2ccc(NC(=O)NCCN3CCOCC3)c(C(F)(F)F)c2)cc1-c1ccc2nc(N)ncc2c1 [Example 4] | ≤ 25 µM |
| Cc1ccc(C(=O)Nc2cc(C(C)(C)C)ccc2C(C)(C)C)cc1-c1ccc2nc(N)ncc2c1 [Example 78, 3-(2-amino-6-quinazolinyl)-N-(2,5-bis(1,1-dimethylethyl)phenyl)-4-methylbenzamide] | ≤ 25 µM |
| CNc1ncc2cc(-c3cc(NC(=O)c4cccc5c4OC(F)(F)O5)ccc3C)cnc2n1 [Example 214, 2,2-difluoro-N-(4-methyl-3-(2-(methylamino)pyrido[2,3-d]pyrimidin-6-yl)phenyl)-1,3-benzodioxole-4-carboxamide] | ≤ 25 µM |
| CN(C)CCCN(C)c1ccc(C(F)(F)F)cc1NC(=O)c1cc(-c2ccc3nc(N)ncc3c2)cn(C)c1=O [Example 164, 5-(2-amino-6-quinazolinyl)-N-(2-((3-(dimethylamino)propyl)(methyl)amino)-5-(trifluoromethyl)phenyl)-1-methyl-2-oxo-1,2-dihydro-3-pyridinecarboxamide] | ≤ 25 µM |
| Cc1ccc(C(=O)Nc2ccc(C(F)(F)F)cn2)cc1-c1ccc2nc(N)ncc2c1 [Example 360, 3-(2-amino-6-quinazolinyl)-4-methyl-N-(5-(trifluoromethyl)-2-pyridinyl)benzamide] | ≤ 25 µM |
| Cc1ccc(C(=O)Nc2ncc(Br)s2)cc1-c1ccc2nc(N)ncc2c1 [Example 356, 3-(2-amino-6-quinazolinyl)-N-(5-bromo-1,3-thiazol-2-yl)-4-methylbenzamide] | ≤ 25 µM |
| Nc1ncc2cc(-c3ccc(F)c(NC(=O)c4cccc(Cl)c4Cl)c3)ccc2n1 [Example 487, N-(5-(2-amino-6-quinazolinyl)-2-fluorophenyl)-2,3-dichlorobenzamide] | ≤ 25 µM |
| Cc1c(NC(=O)c2cc(C(F)(F)F)cc(C(F)(F)F)c2)cccc1-c1ccc2nc(N)ncc2c1 [Example 220, N-(3-(2-amino-6-quinazolinyl)-2-methylphenyl)-3,5-bis(trifluoromethyl)benzamide] | ≤ 25 µM |
| COc1cc(OC)cc(C(=O)Nc2cc(-c3ccc4nc(N)ncc4c3)ccc2F)c1 [Example 490, N-(5-(2-amino-6-quinazolinyl)-2-fluorophenyl)-3,5-bis(methyloxy)benzamide] | ≤ 25 µM |
| Cc1ccc(C(=O)Nc2cccc3nonc23)cc1-c1ccc2nc(N)ncc2c1 [Example 303, 3-(2-amino-6-quinazolinyl)-N-(2,1,3-benzoxadiazol-4-yl)-4-methylbenzamide] | ≤ 25 µM |
| Nc1ncc2cc(-c3cc(C(=O)Nc4cccc(OC(F)(F)F)c4)ccc3Cl)ccc2n1 [Example 142, 3-(2-amino-6-quinazolinyl)-4-chloro-N-(3-((trifluoromethyl)oxy)phenyl)benzamide] | ≤ 25 µM |
| Cc1ccc(C(=O)Nc2cccc(C(F)(F)F)c2C)cc1-c1ccc2nc(N)ncc2c1 [Example 369, 3-(2-amino-6-quinazolinyl)-4-methyl-N-(2-methyl-3-(trifluoromethyl)phenyl)benzamide] | ≤ 25 µM |
| Cc1ccc(C(=O)Nc2nc3cc(Cl)ccc3o2)cc1-c1ccc2nc(N)ncc2c1 [Example 342, 3-(2-amino-6-quinazolinyl)-N-(5-chloro-1,3-benzoxazol-2-yl)-4-methylbenzamide] | ≤ 25 µM |
| COc1ccc(NC(=O)c2ccc(C)c(-c3ccc4nc(N)ncc4c3)c2)c(OC)n1 [Example 233, 3-(2-amino-6-quinazolinyl)-N-(2,6-bis(methyloxy)-3-pyridinyl)-4-methylbenzamide] | ≤ 25 µM |
| COc1ccc(C(=O)Nc2ccccc2)cc1NC(=O)c1ccc(C)c(-c2ccc3nc(N)ncc3c2)c1 [Example 145, 3-(2-amino-6-quinazolinyl)-4-methyl-N-(2-(methyloxy)-5-((phenylamino)carbonyl)phenyl) benzamide] | ≤ 25 µM |
| COc1ccc(Cl)cc1NC(=O)c1ccc(C)c(-c2ccc3nc(N)ncc3c2)c1 [Example 143, 3-(2-amino-6-quinazolinyl)-N-(5-chloro-2-(methyloxy)phenyl)-4-methylbenzamide] | ≤ 25 µM |
| Cc1ccc(C(=O)Nc2cccc(C(F)(F)F)c2C)cc1-c1ccc2nc(NCCCN3CCCC3=O)ncc2c1 [Example 34, 4-methyl-N-(2-methyl-3-(trifluoromethyl)phenyl)-3-(2-((3-(2-oxo-1-pyrrolidinyl)propyl)amino)-6-quinazolinyl) benzamide] | ≤ 25 µM |
| Cc1cc(F)c(C(=O)Nc2cccc(C(F)(F)F)c2)cc1-c1ccc2nc(NC3CC3)ncc2c1 [Example 39, 5-(2-(cyclopropylamino)-6-quinazolinyl)-2-fluoro-4-methyl-N-(3-(trifluoromethyl)phenyl)benzamide] | ≤ 25 µM |

| SMILES | IC50 |
| --- | --- |
| CC(=O)Nc1ccc(C(F)(F)F)cc1NC(=O)c1ccc(C)c(-c2ccc3nc(N)ncc3c2)c1 [Example 234, N-(2-(acetylamino)-5-(trifluoromethyl)phenyl)-3-(2-amino-6-quinazolinyl)-4-methylbenzamide] | ≤ 25 µM |
| Cc1c(NC(=O)c2cc(C(F)(F)F)ccc2F)cccc1-c1ccc2nc(N)ncc2c1 [Example 222, N-(3-(2-amino-6-quinazolinyl)-2-methylphenyl)-2-fluoro-5-(trifluoromethyl) benzamide] | ≤ 25 µM |
| Cc1ccc(C(=O)Nc2ccc(C(F)(F)F)cc2N(C)CCCN(C)C)cc1-c1ccc2nc(N)ncc2c1 [Example 118, 3-(2-amino-6-quinazolinyl)-N-(2-((3-(dimethylamino)propyl)(methyl)amino)-4-(trifluoromethyl)phenyl)-4-methylbenzamide] | ≤ 25 µM |
| CC(C)(C)c1ccc(C(=O)Nc2cc(-c3ccc4nc(N)ncc4c3)ccc2F)cc1 [Example 488, N-(5-(2-amino-6-quinazolinyl)-2-fluorophenyl)-4-(1,1-dimethylethyl)benzamide] | ≤ 25 µM |
| Cc1ccc(C(=O)Nc2cccc3ncccc23)cc1-c1ccc2nc(N)ncc2c1 [Example 281, 3-(2-amino-6-quinazolinyl)-4-methyl-N-(5-quinolinyl)benzamide] | ≤ 25 µM |
| Cc1ccc(NC(=O)c2ccccc2)cc1-c1ccc2nc(NC(=O)c3ccccc3)ncc2c1 [Example 483, N-(6-(2-methyl-5-((phenylcarbonyl)amino)phenyl)-2-quinazolinyl)benzamide] | ≤ 25 µM |
| Cc1ccc(C(=O)Nc2cc(CN3CCN(C)CC3)cc(C(F)(F)F)c2)cc1-c1ccc2nc(N)ncc2c1 [Example 159, 3-(2-amino-6-quinazolinyl)-4-methyl-N-(3-((4-methyl-1-piperazinyl)methyl)-5-(trifluoromethyl)phenyl)benzamide] | ≤ 25 µM |
| Cc1ccc(C(=O)Nc2ncccc2OCc2ccccc2)cc1-c1ccc2nc(N)ncc2c1 [Example 358, 3-(2-amino-6-quinazolinyl)-4-methyl-N-(3-((phenylmethyl)oxy)-2-pyridinyl)benzamide] | ≤ 25 µM |
| CCN(CC)CCCOc1ccc(NC(=O)c2ccc(C)c(-c3ccc4nc(N)ncc4c3)c2)cc1C(F)(F)F [Example 122, 3-(2-amino-6-quinazolinyl)-N-(4-((3-(diethylamino)propyl)oxy)-3-(trifluoromethyl)phenyl)-4-methylbenzamide] | ≤ 25 µM |
| CCN(CC)CCNC(=O)c1cc(NC(=O)c2ccc(C)c(-c3cnc4nc(NC)ncc4c3)c2)cc(C(F)(F)F)c1 [Example 190, N-(3-(((2-(diethylamino)ethyl)amino)carbonyl)-5-(trifluoromethyl)phenyl)-4-methyl-3-(2-(methylamino)pyrido [2,3-d]pyrimidin-6-yl)benzamide] | ≤ 25 µM |
| CNc1ncc2cc(-c3cccc(C(=O)Nc4cccc(C(F)(F)F)c4)c3)ccc2n1 [Example 53, 3-(2-(methylamino)-6-quinazolinyl)-N-(3-(trifluoromethyl)phenyl)benzamide] | ≤ 25 µM |
| CCN(CC)S(=O)(=O)c1ccc(OC)c(NC(=O)c2ccc(C)c(-c3cnc4nc(NC)ncc4c3)c2)c1 [Example 191, N-(5-((diethylamino)sulfonyl)-2-(methyloxy)phenyl)-4-methyl-3-(2-(methylamino)pyrido [2,3-d]pyrimidin-6-yl)benzamide] | ≤ 25 µM |
| Cc1ccc(C(=O)Nc2ccc(C(F)(F)F)cc2)cc1-c1ccc2nc(N(C)C)ncc2c1 [Example 319, 3-(2-(dimethylamino)-6-quinazolinyl)-4-methyl-N-(4-(trifluoromethyl)phenyl)benzamide] | ≤ 25 µM |
| Cc1cc(NC(=O)c2ccc(C)c(-c3ccc4nc(N)ncc4c3)c2)on1 [Example 323, 3-(2-amino-6-quinazolinyl)-4-methyl-N-(3-methyl-5-isoxazolyl)benzamide] | ≤ 25 µM |
| CNc1ncc2cc(-c3cccc(NC(=O)c4cccc(C(F)(F)F)c4)c3C)cnc2n1 [Example 198, N-2-methyl-3-(2-(methylamino)pyrido[2,3-d]pyrimidin-6-yl)-N-(3-(trifluoromethyl)phenyl)benzamide] | ≤ 25 µM |
| COc1ccc(C(F)(F)F)cc1NC(=O)c1ccc(C)c(-c2ccc3nc(N)ncc3c2)c1 [Example 41, 3-(2-amino-6-quinazolinyl)-4-methyl-N-(2-(methyloxy)-5-(trifluoromethyl)phenyl)benzamide] | ≤ 25 µM |
| Cc1ccc(C(=O)Nc2cc(C(F)(F)F)ccc2N2CCCC2)cc1-c1ccc2nc(N)ncc2c1 [Example 80, 3-(2-amino-6-quinazolinyl)-4-methyl-N-(2-(1-pyrrolidinyl)-5-(trifluoromethyl)phenyl)benzamide] | ≤ 25 µM |
| COc1ccc(OC)c(NC(=O)c2ccc(C)c(-c3ccc4nc(N)ncc4c3)c2)c1 [Example 148, 3-(2-amino-6-quinazolinyl)-N-(2,5-bis(methyloxy)phenyl)-4-methylbenzamide] | ≤ 25 µM |
